The values that follow come from patent US20070128217A1 (priority 2003, published 2007).

Test [1] has as its system antibodies in sera from SARS patients (sera 1a, 1b, 2, 6, 37, 62, London, SARS-yellow, SARS-green). In kind it is binding, human. Further details: Binding of serum 6 to linear peptides of protein X1 of SARS-CoV Urbani / Binding of serum 37 to linear peptides of protein X1 of SARS-CoV Urbani / Binding of serum 6 to looped/cyclic peptide (PEPSCAN-ELISA) / Binding of serum 37 to looped/cyclic peptide (PEPSCAN-ELISA) / Binding of serum 37 to looped/cyclic peptides of protein X1 of SARS-CoV Urbani / Binding of serum 6 to linear peptides of protein X2 / Binding of serum 37 to linear peptides of protein X2 / Binding of serum 37 to looped/cyclic peptides of protein X2 of SARS-CoV Urbani / Binding of serum 6 to linear peptides of protein M of SARS-CoV Urbani / Binding of serum 37 to linear peptides of protein M of SARS-CoV Urbani / Binding of serum 6 to looped/cyclic peptides of protein M of SARS-CoV Urbani / Binding of serum 37 to looped/cyclic peptides of protein M of SARS-CoV Urbani / Binding of serum 6 to linear peptides of protein X3 of SARS-CoV Urbani / Binding of serum 37 to linear peptides of protein X3 of SARS-CoV Urbani / Binding of serum 37 to looped/cyclic peptides of protein X3 of SARS-CoV Urbani / Binding of serum 6 to linear peptides of protein X4 of SARS-CoV Urbani / Binding of serum 37 to linear peptides of protein X4 of SARS-CoV Urbani / Binding of serum 37 to looped/cyclic peptides of protein X4 of SARS-CoV Urbani / Binding of serum 6 to linear peptides of protein X5 of SARS-CoV Urbani / Binding of serum 37 to linear peptides of protein X5 of SARS-CoV Urbani / Binding of serum 37 to looped/cyclic peptides of protein X5 of SARS-CoV Urbani / Binding of serum 6 to linear peptides of protein N of SARS-CoV Urbani / Binding of serum 37 to linear peptides of protein N of SARS-CoV Urbani / Binding of serum 6 to linear peptide (PEPSCAN-ELISA) / Binding of serum 1a to looped/cyclic peptides of protein N of SARS-CoV Urbani / Binding of serum 1b to looped/cyclic peptides of protein N of SARS-CoV Urbani / Binding of serum 2 to looped/cyclic peptides of protein N of SARS-CoV Urbani / Binding of serum 6 to looped/cyclic peptides of protein N of SARS-CoV Urbani / Binding of serum 37 to looped/cyclic peptides of protein N of SARS-CoV Urbani / Binding of serum 62 to looped/cyclic peptides of protein N of SARS-CoV Urbani / Binding of serum London to looped/cyclic peptides of protein N of SARS-CoV Urbani / Binding of serum SARS-green to looped/cyclic peptides of protein N of SARS-CoV Urbani: unit not given here.

In test [2] the test system is control sera (pooled serum of ten healthy LUMC hospital workers; commercial negative donor pooled serum from the Dutch bloodbank). In kind it is binding, human. Further details: Binding of Control serum LUMC to linear peptides / Binding of Control serum Blood-bank to linear peptides / Binding of Control serum LUMC to looped peptides / Binding of Control Serum Blood-Bank to Looped peptides / Binding of Control serum LUMC to linear peptides of the protein M of SARS-CoV Urbani / Binding of Control serum Blood-bank to linear peptides of the protein M of SARS-CoV Urbani / Binding of Control serum LUMC to looped peptides of the protein M of SARS-CoV Urbani / Binding of Control Serum Blood-Bank to Looped peptides of the protein M of SARS-CoV Urbani: unit not given here.

The subject of test [3] is rabbit serum obtained by immunizing a rabbit with the SARS-CoV strain Frankfurt 1. In kind it is binding. Further details: Binding of a rabbit serum to linear peptides / Binding of a rabbit serum to looped peptides / Rabbit serum linear peptides / Rabbit serum looped peptides / Binding of a rabbit serum to linear peptides of protein N of SARS-CoV Urbani (Rabbit serum linear peptides) / Binding of a rabbit serum to looped/cyclic peptides of protein N of SARS-CoV Urbani (Rabbit serum looped peptides): unit not given here.

FLTLIVFTSCELYHY: in test [1], the “Binding of serum 1a to linear peptides of protein X4 of SARS-CoV Urbani” value is given as 0.7, the “Binding of serum 1a to looped/cyclic peptides of protein X4 of SARS-CoV Urbani” value was 0.8, the “Binding of serum 1b to linear peptides of protein X4 of SARS-CoV Urbani” value is recorded as 0.6 and the “Binding of serum 1b to looped/cyclic peptides of protein X4 of SARS-CoV Urbani” value was 1.7. Moreover, in test [1], the “Binding of serum 2 to linear peptides of protein X4 of SARS-CoV Urbani” value turned out to be 0.5, the “Binding of serum 2 to looped/cyclic peptides of protein X4 of SARS-CoV Urbani” value was 0.8, the “Binding of serum 6 to linear peptides of protein X4 of SARS-CoV Urbani” value stood at 0.5 and the “Binding of serum 6 to looped/cyclic peptides of protein X4 of SARS-CoV Urbani” value amounted to 0.5. In test [1], the “Binding of serum 37 to linear peptides of protein X4 of SARS-CoV Urbani” value is given as 0.7, the “Binding of serum 37 to looped/cyclic peptides of protein X4 of SARS-CoV Urbani” value was 0.7, the “Binding of serum 62 to linear peptides of protein X4 of SARS-CoV Urbani” value is recorded as 0.7 and the “Binding of serum 62 to looped/cyclic peptides of protein X4 of SARS-CoV Urbani” value worked out at 0.7. In test [1], the “Binding of serum London to linear peptides of protein X4 of SARS-CoV Urbani” value is on record as 0.6, the “Binding of serum London to looped/cyclic peptides of protein X4 of SARS-CoV Urbani” value is reported as 0.3, the “Binding of serum SARS-green to linear peptides of protein X4 of SARS-CoV Urbani” value was 0.6 and the “Binding of serum SARS-green to looped/cyclic peptides of protein X4 of SARS-CoV Urbani” value worked out at 0.3. Further, in test [1], the “Binding of serum SARS-yellow to linear peptides of protein X4 of SARS-CoV Urbani” value worked out at 0.6 and the “Binding of serum SARS-yellow to looped/cyclic peptides of protein X4 of SARS-CoV Urbani” value is 0.7. Moreover, in test [2], the “Binding of Control Serum Blood-Bank to Looped peptides” value amounted to 0.6, the “Binding of Control serum Blood-bank to linear peptides” value was 0.6, the “Binding of Control serum LUMC to linear peptides” value is 0.7 and the “Binding of Control serum LUMC to looped peptides” value is recorded as 0.7. Also, in test [3], the “Rabbit serum linear peptides” value came to 0.4 and the “Rabbit serum looped peptides” value is 0.5.
For FLWLLWPVTLACFVL, in test [1], the “Binding of serum 1a to linear peptides of protein M of SARS-CoV Urbani” value is on record as 0.6, the “Binding of serum 1a to looped/cyclic peptides of protein M of SARS-CoV Urbani” value was 0.6, the “Binding of serum 1b to linear peptides of protein M of SARS-CoV Urbani” value turned out to be 0.4 and the “Binding of serum 1b to looped/cyclic peptides of protein M of SARS-CoV Urbani” value turned out to be 0.5. Also, in test [1], the “Binding of serum 2 to linear peptides of protein M of SARS-CoV Urbani” value is listed as 0.5, the “Binding of serum 2 to looped/cyclic peptides of protein M of SARS-CoV Urbani” value is 0.6, the “Binding of serum 6 to linear peptides of protein M of SARS-CoV Urbani” value was 0.3 and the “Binding of serum 6 to looped/cyclic peptides of protein M of SARS-CoV Urbani” value is listed as 0.4. In test [1], the “Binding of serum 37 to linear peptides of protein M of SARS-CoV Urbani” value worked out at 0.6, the “Binding of serum 37 to looped/cyclic peptides of protein M of SARS-CoV Urbani” value stood at 0.6, the “Binding of serum 62 to linear peptides of protein M of SARS-CoV Urbani” value turned out to be 0.7 and the “Binding of serum 62 to looped/cyclic peptides of protein M of SARS-CoV Urbani” value is given as 0.6. Further, in test [1], the “Binding of serum London to linear peptides of protein M of SARS-CoV Urbani” value turned out to be 0.4, the “Binding of serum London to looped/cyclic peptides of protein M of SARS-CoV Urbani” value amounted to 0.2, the “Binding of serum SARS-green to linear peptides of protein M of SARS-CoV Urbani” value came to 0.2 and the “Binding of serum SARS-green to looped/cyclic peptides of protein M of SARS-CoV Urbani” value was determined as 0.2. Also, in test [1], the “Binding of serum SARS-yellow to linear peptides of protein M of SARS-CoV Urbani” value was found to be 0.1 and the “Binding of serum SARS-yellow to looped/cyclic peptides of protein M of SARS-CoV Urbani” value is 0.7. Besides, in test [2], the “Binding of Control Serum Blood-Bank to Looped peptides of the protein M of SARS-CoV Urbani” value came to 0.5, the “Binding of Control serum Blood-bank to linear peptides of the protein M of SARS-CoV Urbani” value came to 0.4, the “Binding of Control serum LUMC to linear peptides of the protein M of SARS-CoV Urbani” value is reported as 0.2 and the “Binding of Control serum LUMC to looped peptides of the protein M of SARS-CoV Urbani” value was determined as 0.7. Also, in test [3], the “Rabbit serum linear peptides” value amounted to 0.3 and the “Rabbit serum looped peptides” value was found to be 0.4.
For FMMSRRRLLACLCKH, in test [1], the “Binding of serum 1a to linear peptides of protein X2” value was found to be 0.7, the “Binding of serum 1a to looped/cyclic peptides of protein X2 of SARS-CoV Urbani” value worked out at 0.4, the “Binding of serum 1b to linear peptides of protein X2” value turned out to be 0.5 and the “Binding of serum 1b to looped/cyclic peptides of protein X2 of SARS-CoV Urbani” value was found to be 0.4. In addition, in test [1], the “Binding of serum 2 to linear peptides of protein X2” value was 0.5, the “Binding of serum 2 to looped/cyclic peptides of protein X2 of SARS-CoV Urbani” value amounted to 0.3, the “Binding of serum 6 to linear peptides of protein X2” value was 0.7 and the “Binding of serum 6 to looped/cyclic peptides of protein X2 of SARS-CoV Urbani” value is recorded as 0.5. In test [1], the “Binding of serum 37 to linear peptides of protein X2” value is reported as 0.6, the “Binding of serum 37 to looped/cyclic peptides of protein X2 of SARS-CoV Urbani” value is reported as 0.3, the “Binding of serum 62 to linear peptides of protein X2” value is given as 0.6 and the “Binding of serum 62 to looped/cyclic peptides of protein X2 of SARS-CoV Urbani” value was found to be 0.4. Also, in test [1], the “Binding of serum London to linear peptides of protein X2” value was found to be 0.7, the “Binding of serum London to looped/cyclic peptides of protein X2 of SARS-CoV Urbani” value was found to be 1.2, the “Binding of serum SARS-green to linear peptides of protein X2” value worked out at 0.5 and the “Binding of serum SARS-green to looped/cyclic peptides of protein X2 of SARS-CoV Urbani” value was found to be 0.3. Further, in test [1], the “Binding of serum SARS-yellow to linear peptides of protein X2” value was 0.5 and the “Binding of serum SARS-yellow to looped/cyclic peptides of protein X2 of SARS-CoV Urbani” value is recorded as 0.5. In addition, in test [2], the “Binding of Control Serum Blood-Bank to Looped peptides” value is listed as 0.6, the “Binding of Control serum Blood-bank to linear peptides” value is 0.7, the “Binding of Control serum LUMC to linear peptides” value is reported as 0.4 and the “Binding of Control serum LUMC to looped peptides” value was found to be 0.5. Moreover, in test [3], the “Binding of a rabbit serum to linear peptides” value was found to be 0.4 and the “Binding of a rabbit serum to looped peptides” value came to 0.6.
In the case of FRIAIWNLDVIISSI, in test [1], the “Binding of serum 1a to linear peptides of protein X3 of SARS-CoV Urbani” value was found to be 0.8, the “Binding of serum 1a to looped/cyclic peptides of protein X3 of SARS-CoV Urbani” value turned out to be 0.7, the “Binding of serum 1b to linear peptides of protein X3 of SARS-CoV Urbani” value is given as 0.5 and the “Binding of serum 1b to looped/cyclic peptides of protein X3 of SARS-CoV Urbani” value was found to be 0.5. For the same sequence, in test [1], the “Binding of serum 2 to linear peptides of protein X3 of SARS-CoV Urbani” value turned out to be 0.6, the “Binding of serum 2 to looped/cyclic peptides of protein X3 of SARS-CoV Urbani” value was determined as 0.7, the “Binding of serum 6 to linear peptides of protein X3 of SARS-CoV Urbani” value amounted to 0.4 and the “Binding of serum 6 to looped/cyclic peptides of protein X3 of SARS-CoV Urbani” value amounted to 0.3. For the same sequence, in test [1], the “Binding of serum 37 to linear peptides of protein X3 of SARS-CoV Urbani” value amounted to 0.5, the “Binding of serum 37 to looped/cyclic peptides of protein X3 of SARS-CoV Urbani” value was determined as 0.6, the “Binding of serum 62 to linear peptides of protein X3 of SARS-CoV Urbani” value stood at 0.7 and the “Binding of serum 62 to looped/cyclic peptides of protein X3 of SARS-CoV Urbani” value stood at 0.6. Moreover, in test [1], the “Binding of serum London to linear peptides of protein X3 of SARS-CoV Urbani” value came out at 0.7, the “Binding of serum London to looped/cyclic peptides of protein X3 of SARS-CoV Urbani” value was 0.2, the “Binding of serum SARS-green to linear peptides of protein X3 of SARS-CoV Urbani” value stood at 0.4 and the “Binding of serum SARS-green to looped/cyclic peptides of protein X3 of SARS-CoV Urbani” value amounted to 0.2. For the same sequence, in test [1], the “Binding of serum SARS-yellow to linear peptides of protein X3 of SARS-CoV Urbani” value is 0.7 and the “Binding of serum SARS-yellow to looped/cyclic peptides of protein X3 of SARS-CoV Urbani” value is listed as 0.8. For the same sequence, in test [2], the “Binding of Control Serum Blood-Bank to Looped peptides of the protein X3 of SARS-CoV Urbani” value is given as 0.8, the “Binding of Control serum Blood-bank to linear peptides of the protein X3 of SARS-CoV Urbani” value amounted to 0.7, the “Binding of Control serum LUMC to linear peptides of the protein X3 of SARS-CoV Urbani” value is 0.6 and the “Binding of Control serum LUMC to looped peptides of the protein X3 of SARS-CoV Urbani” value turned out to be 0.7. Moreover, in test [3], the “Rabbit serum linear peptides” value was 0.3 and the “Rabbit serum looped peptides” value turned out to be 0.2.
